In US9770026B2, “Substituted pyrimidine compound and uses thereof” (Shenyang Sinochem Agrochemicals R&D Co., Ltd., priority 2012, dated 2017) one finds pest or weed control and inhibition data, which are given here for five molecules.

The first test concerns carmine spider mite. The test can be described thus: bioactivity test against carmine spider mite, airbrush spray. In kind it is in vivo. The note with it: Tetranychus cinnabarinus, 72 h, 600 mg/L; contrastive test; read-out: Insecticidal activity against carmine spider mite (% ). The procedure, abridged:
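Broadbean seedlings infested with adult mites were sprayed with compound (acetone/methanol stock diluted in 0.1% Tween 80 water) by airbrush at 0.7 kg/cm^2, 0.5 ml. Three replicates were run. Mortality was scored after 72 hrs.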
As to `CCC(Nc1nc(Cl)nc(C(=O)OC)c1Cl)c1ccc(Oc2ncc(C(F)(F)F)cc2Cl)cc1` (stereo not drawn) [CK35, reference compound], the pest or weed control at 600 µg/mL amounted to 0%.

On to `Cc1nc(C)c(Cl)c(NCc2ccc(OCc3ccccc3)cc2)n1` [CK52, reference compound], for which the pest or weed control at 600 µg/mL was determined as 44%.

With `CCc1ncnc(NC(=O)Cc2ccc(Oc3ccc(C(F)(F)F)cn3)cc2)c1Cl` [CK55, reference compound], the pest or weed control at 600 µg/mL turned out to be 0%.

Consider `Cc1ncnc(NC(=O)Cc2ccc(Oc3ccc(C(F)(F)F)cc3Cl)cc2)c1Cl` [CK58, reference compound], for which the pest or weed control at 600 µg/mL amounted to 0%.

In the case of `CCc1ncnc(NC(=O)Cc2ccc(Oc3ccc(C(F)(F)F)cc3)cc2)c1Cl` [CK59, reference compound], the pest or weed control at 600 µg/mL worked out at 0%.

Another test has as its system Green peach aphids (Myzus Persicae Sulzer). The test can be described thus: bioactivity test against green peach aphid, airbrush foliar spray. The format is in vivo. The note with it: Myzus persicae, foliar, 48 h, 10 mg/L; contrastive test; read-out: Insecticidal activity against peach aphid (%). The procedure, abridged: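 Aphids (15-30 per cabbage leaf disc) on moist filter paper were airbrush-sprayed at 10 psi, 0.5 mL, with compound from acetone:methanol (1:1) diluted in water with 0.1% tween 80. Held at 25±1 C, 60±5% RH; survivors counted after 48 hrs to give death rates.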
Regarding `Cc1nc(C)c(Cl)c(NCc2ccc(OCc3ccccc3)cc2)n1` [CK52, reference compound], the pest or weed control at 10 µg/mL was 0%.

Consider `Cc1ncnc(NC(=O)Cc2ccc(Oc3ccc(C(F)(F)F)cc3Cl)cc2)c1Cl` [CK58, reference compound], for which the pest or weed control at 10 µg/mL came out at 0%.

For `CCc1ncnc(NC(=O)Cc2ccc(Oc3ccc(C(F)(F)F)cc3)cc2)c1Cl` [CK59, reference compound], the pest or weed control at 10 µg/mL was found to be 0%.

Still in this test, the particulars now being: Myzus persicae, foliar, 48 h, 100 mg/L; contrastive test; read-out: Insecticidal activity against peach aphid (%).
Regarding `Cc1nc(C)c(Cl)c(NCc2ccc(OCc3ccccc3)cc2)n1` [CK52, reference compound], the pest or weed control at 100 µg/mL was found to be 0%.

Take `Cc1ncnc(NC(=O)Cc2ccc(Oc3ccc(C(F)(F)F)cc3Cl)cc2)c1Cl` [CK58, reference compound]: the pest or weed control at 100 µg/mL amounted to 0%.

On to `CCc1ncnc(NC(=O)Cc2ccc(Oc3ccc(C(F)(F)F)cc3)cc2)c1Cl` [CK59, reference compound], for which the pest or weed control at 100 µg/mL was 15%.

Staying with this test, now noted: Myzus persicae, foliar, 48 h, 600 mg/L; contrastive test; read-out: Insecticidal activity against peach aphid (%).
Take `CCC(Nc1nc(Cl)nc(C(=O)OC)c1Cl)c1ccc(Oc2ncc(C(F)(F)F)cc2Cl)cc1` (stereo not drawn) [CK35, reference compound]: the pest or weed control at 600 µg/mL turned out to be 0%.

On to `Cc1nc(C)c(Cl)c(NCc2ccc(OCc3ccccc3)cc2)n1` [CK52, reference compound], for which the pest or weed control at 600 µg/mL is 88%.

For the molecule `CCc1ncnc(NC(=O)Cc2ccc(Oc3ccc(C(F)(F)F)cn3)cc2)c1Cl` [CK55, reference compound], the pest or weed control at 600 µg/mL is 0%.

In the case of `Cc1ncnc(NC(=O)Cc2ccc(Oc3ccc(C(F)(F)F)cc3Cl)cc2)c1Cl` [CK58, reference compound], the pest or weed control at 600 µg/mL is 100%.

`CCc1ncnc(NC(=O)Cc2ccc(Oc3ccc(C(F)(F)F)cc3)cc2)c1Cl` [CK59, reference compound]: the pest or weed control at 600 µg/mL is 75%.

The test system of another test is cucumber gray mold. As to the kind of experiment: fungicidal activity in vitro (inhibition rate) against cucumber gray mold. The conditions noted are these: 25 ppm, in vitro; read-out: inhibition rate against cucumber gray mold. The format is cell-based.
Broadly, the inhibition is the drop in the measured response relative to a control, in per cent. In the case of `CCC(Nc1nc(Cl)nc(C(=O)OC)c1Cl)c1ccc(Oc2ncc(C(F)(F)F)cc2Cl)cc1` (stereo not drawn) [CK35, reference compound], the inhibition at 25 ppm was 0%.

`Cc1nc(C)c(Cl)c(NCc2ccc(OCc3ccccc3)cc2)n1` [CK52, reference compound]: the inhibition at 25 ppm came to 0%.

Regarding `CCc1ncnc(NC(=O)Cc2ccc(Oc3ccc(C(F)(F)F)cn3)cc2)c1Cl` [CK55, reference compound], the inhibition at 25 ppm turned out to be 0%.

On to `Cc1ncnc(NC(=O)Cc2ccc(Oc3ccc(C(F)(F)F)cc3Cl)cc2)c1Cl` [CK58, reference compound], for which the inhibition at 25 ppm was 0%.

`CCc1ncnc(NC(=O)Cc2ccc(Oc3ccc(C(F)(F)F)cc3)cc2)c1Cl` [CK59, reference compound]: the inhibition at 25 ppm amounted to 0%.

For a further test, the system named is corn rust. The test can be described thus: protectant activity in vivo against corn rust. The note with it: Zea mays, 168 h, read-out: control effect against corn rust (%), 400 mg/L; protectant activity.
`CCC(Nc1nc(Cl)nc(C(=O)OC)c1Cl)c1ccc(Oc2ncc(C(F)(F)F)cc2Cl)cc1` (stereo not drawn) [CK35, reference compound]: the pest or weed control at 400 µg/mL amounted to 0%.

Take `Cc1nc(C)c(Cl)c(NCc2ccc(OCc3ccccc3)cc2)n1` [CK52, reference compound]: the pest or weed control at 400 µg/mL is 85%.

Consider `CCc1ncnc(NC(=O)Cc2ccc(Oc3ccc(C(F)(F)F)cn3)cc2)c1Cl` [CK55, reference compound], for which the pest or weed control at 400 µg/mL was 0%.

`Cc1ncnc(NC(=O)Cc2ccc(Oc3ccc(C(F)(F)F)cc3Cl)cc2)c1Cl` [CK58, reference compound]: the pest or weed control at 400 µg/mL worked out at 0%.

Regarding `CCc1ncnc(NC(=O)Cc2ccc(Oc3ccc(C(F)(F)F)cc3)cc2)c1Cl` [CK59, reference compound], the pest or weed control at 400 µg/mL was 0%.

A further test has as its system Diamond back moth. As to the kind of experiment: insecticidal activity against diamond back moth, airbrush spray. The conditions noted are these: 72 h, 600 mg/L. The format is in vivo. Put shortly: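 Airbrush leaf-disc spray test: both faces of 2 cm cabbage discs received 0.5 ml of test solution at 0.7 kg/cm^2. Solutions were made in acetone:methanol (1:1) and brought to concentration with 0.1% Tween 80 in water. Ten second-instar larvae per disc, triplicates, were held at 25° C and 60˜70% R.H., with mortality recorded at 72 hrs.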
Consider `CCC(Nc1nc(Cl)nc(C(=O)OC)c1Cl)c1ccc(Oc2ncc(C(F)(F)F)cc2Cl)cc1` (stereo not drawn) [CK35, reference compound], for which the pest or weed control at 600 µg/mL amounted to 0%.

`Cc1nc(C)c(Cl)c(NCc2ccc(OCc3ccccc3)cc2)n1` [CK52, reference compound] displayed a pest or weed control at 600 µg/mL of 20%.

In the case of `CCc1ncnc(NC(=O)Cc2ccc(Oc3ccc(C(F)(F)F)cn3)cc2)c1Cl` [CK55, reference compound], the pest or weed control at 600 µg/mL came to 0%.

`Cc1ncnc(NC(=O)Cc2ccc(Oc3ccc(C(F)(F)F)cc3Cl)cc2)c1Cl` [CK58, reference compound] returned a pest or weed control at 600 µg/mL of 0%.

For the molecule `CCc1ncnc(NC(=O)Cc2ccc(Oc3ccc(C(F)(F)F)cc3)cc2)c1Cl` [CK59, reference compound], the pest or weed control at 600 µg/mL stood at 57%.

For the next test, the system named is rice blast. The test can be described thus: microbe, parasite or virus in culture. The conditions noted are these: Pyricularia oryzae, read-out: inhibition rate against rice blast, 8.3 ppm, in vitro. In kind it is cell-based.
As to `Cc1nc(C)c(Cl)c(NCc2ccc(OCc3ccccc3)cc2)n1` [CK52, reference compound], the inhibition at 8.3 ppm is 0%.

The same test, now with this note: Pyricularia oryzae, read-out: inhibition rate against rice blast, 25 ppm, in vitro.
Turning to `CCC(Nc1nc(Cl)nc(C(=O)OC)c1Cl)c1ccc(Oc2ncc(C(F)(F)F)cc2Cl)cc1` (stereo not drawn) [CK35, reference compound], the inhibition at 25 ppm is less than 50%.

In the case of `CCc1ncnc(NC(=O)Cc2ccc(Oc3ccc(C(F)(F)F)cn3)cc2)c1Cl` [CK55, reference compound], the inhibition at 25 ppm is less than 50%.

Consider `Cc1ncnc(NC(=O)Cc2ccc(Oc3ccc(C(F)(F)F)cc3Cl)cc2)c1Cl` [CK58, reference compound], for which the inhibition at 25 ppm was less than 50%.

`CCc1ncnc(NC(=O)Cc2ccc(Oc3ccc(C(F)(F)F)cc3)cc2)c1Cl` [CK59, reference compound]: the inhibition at 25 ppm was 0%.

For another test, the system named is armyworm. The test can be described thus: bioactivity test against armyworm, airbrush spray. In kind it is in vivo. The note with it: 72 h, 600 mg/L; read-out: Insecticidal activity against armyworm (%).
In the case of `CCC(Nc1nc(Cl)nc(C(=O)OC)c1Cl)c1ccc(Oc2ncc(C(F)(F)F)cc2Cl)cc1` (stereo not drawn) [CK35, reference compound], the pest or weed control at 600 µg/mL was 0%.

`Cc1nc(C)c(Cl)c(NCc2ccc(OCc3ccccc3)cc2)n1` [CK52, reference compound]: the pest or weed control at 600 µg/mL worked out at 0%.

Regarding `CCc1ncnc(NC(=O)Cc2ccc(Oc3ccc(C(F)(F)F)cn3)cc2)c1Cl` [CK55, reference compound], the pest or weed control at 600 µg/mL was found to be 0%.

Regarding `Cc1ncnc(NC(=O)Cc2ccc(Oc3ccc(C(F)(F)F)cc3Cl)cc2)c1Cl` [CK58, reference compound], the pest or weed control at 600 µg/mL came to 0%.

On to `CCc1ncnc(NC(=O)Cc2ccc(Oc3ccc(C(F)(F)F)cc3)cc2)c1Cl` [CK59, reference compound], for which the pest or weed control at 600 µg/mL stood at 14%.

Another test has as its system cucumber downy mildew. The test can be described thus: protectant activity in vivo against cucumber downy mildew. The conditions noted are these: Cucumis sativus, 168 h, read-out: control effect against cucumber downy mildew (%), 25 mg/L; protectant activity.
As to `Cc1nc(C)c(Cl)c(NCc2ccc(OCc3ccccc3)cc2)n1` [CK52, reference compound], the pest or weed control at 25 µg/mL turned out to be 70%.

`CCc1ncnc(NC(=O)Cc2ccc(Oc3ccc(C(F)(F)F)cn3)cc2)c1Cl` [CK55, reference compound]: the pest or weed control at 25 µg/mL worked out at 0%.

The test is the same for the next values; noted with them: Cucumis sativus, 168 h, read-out: control effect against cucumber downy mildew (%), 50 mg/L; protectant activity.
In the case of `Cc1nc(C)c(Cl)c(NCc2ccc(OCc3ccccc3)cc2)n1` [CK52, reference compound], the pest or weed control at 50 µg/mL came out at 90%.

As for `CCc1ncnc(NC(=O)Cc2ccc(Oc3ccc(C(F)(F)F)cn3)cc2)c1Cl` [CK55, reference compound], the pest or weed control at 50 µg/mL came out at 0%.

The same test, now with this note: Cucumis sativus, 168 h, read-out: control effect against cucumber downy mildew (%), 100 mg/L; protectant activity.
As for `Cc1nc(C)c(Cl)c(NCc2ccc(OCc3ccccc3)cc2)n1` [CK52, reference compound], the pest or weed control at 100 µg/mL was 98%.

In the case of `CCc1ncnc(NC(=O)Cc2ccc(Oc3ccc(C(F)(F)F)cn3)cc2)c1Cl` [CK55, reference compound], the pest or weed control at 100 µg/mL came to 0%.

The same test, now with this note: Cucumis sativus, 168 h, read-out: control effect against cucumber downy mildew (%), 400 mg/L; protectant activity.
As for `CCC(Nc1nc(Cl)nc(C(=O)OC)c1Cl)c1ccc(Oc2ncc(C(F)(F)F)cc2Cl)cc1` (stereo not drawn) [CK35, reference compound], the pest or weed control at 400 µg/mL turned out to be 60%.

`Cc1nc(C)c(Cl)c(NCc2ccc(OCc3ccccc3)cc2)n1` [CK52, reference compound]: the pest or weed control at 400 µg/mL is 100%.

With `CCc1ncnc(NC(=O)Cc2ccc(Oc3ccc(C(F)(F)F)cn3)cc2)c1Cl` [CK55, reference compound], the pest or weed control at 400 µg/mL amounted to 100%.

With `Cc1ncnc(NC(=O)Cc2ccc(Oc3ccc(C(F)(F)F)cc3Cl)cc2)c1Cl` [CK58, reference compound], the pest or weed control at 400 µg/mL was 0%.

Take `CCc1ncnc(NC(=O)Cc2ccc(Oc3ccc(C(F)(F)F)cc3)cc2)c1Cl` [CK59, reference compound]: the pest or weed control at 400 µg/mL was determined as 80%.

The next test concerns wheat powdery mildew. The test can be described thus: protectant activity in vivo against wheat powdery mildew. The note with it: Triticum aestivum, 168 h, read-out: control effect against wheat powdery mildew (%), 400 mg/L; protectant activity.
With `CCC(Nc1nc(Cl)nc(C(=O)OC)c1Cl)c1ccc(Oc2ncc(C(F)(F)F)cc2Cl)cc1` (stereo not drawn) [CK35, reference compound], the pest or weed control at 400 µg/mL was 0%.

For `Cc1nc(C)c(Cl)c(NCc2ccc(OCc3ccccc3)cc2)n1` [CK52, reference compound], the pest or weed control at 400 µg/mL came out at 0%.

As to `CCc1ncnc(NC(=O)Cc2ccc(Oc3ccc(C(F)(F)F)cn3)cc2)c1Cl` [CK55, reference compound], the pest or weed control at 400 µg/mL is 60%.

As to `Cc1ncnc(NC(=O)Cc2ccc(Oc3ccc(C(F)(F)F)cc3Cl)cc2)c1Cl` [CK58, reference compound], the pest or weed control at 400 µg/mL was 0%.

Consider `CCc1ncnc(NC(=O)Cc2ccc(Oc3ccc(C(F)(F)F)cc3)cc2)c1Cl` [CK59, reference compound], for which the pest or weed control at 400 µg/mL was 0%.
